Laboratory results as given in ChEMBL document CHEMBL1201862, “PubChem BioAssay data set” (2004).
Calls of active or inactive are those of the source.

Legend:
[1] = target: T1, Aryl hydrocarbon receptor (Homo sapiens, UniProt P35869); conditions: Potency;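 also: confirmatory quantitative high-throughput screen measuring activation of the AhR signaling pathway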
T1 sequence (P35869 whole entry): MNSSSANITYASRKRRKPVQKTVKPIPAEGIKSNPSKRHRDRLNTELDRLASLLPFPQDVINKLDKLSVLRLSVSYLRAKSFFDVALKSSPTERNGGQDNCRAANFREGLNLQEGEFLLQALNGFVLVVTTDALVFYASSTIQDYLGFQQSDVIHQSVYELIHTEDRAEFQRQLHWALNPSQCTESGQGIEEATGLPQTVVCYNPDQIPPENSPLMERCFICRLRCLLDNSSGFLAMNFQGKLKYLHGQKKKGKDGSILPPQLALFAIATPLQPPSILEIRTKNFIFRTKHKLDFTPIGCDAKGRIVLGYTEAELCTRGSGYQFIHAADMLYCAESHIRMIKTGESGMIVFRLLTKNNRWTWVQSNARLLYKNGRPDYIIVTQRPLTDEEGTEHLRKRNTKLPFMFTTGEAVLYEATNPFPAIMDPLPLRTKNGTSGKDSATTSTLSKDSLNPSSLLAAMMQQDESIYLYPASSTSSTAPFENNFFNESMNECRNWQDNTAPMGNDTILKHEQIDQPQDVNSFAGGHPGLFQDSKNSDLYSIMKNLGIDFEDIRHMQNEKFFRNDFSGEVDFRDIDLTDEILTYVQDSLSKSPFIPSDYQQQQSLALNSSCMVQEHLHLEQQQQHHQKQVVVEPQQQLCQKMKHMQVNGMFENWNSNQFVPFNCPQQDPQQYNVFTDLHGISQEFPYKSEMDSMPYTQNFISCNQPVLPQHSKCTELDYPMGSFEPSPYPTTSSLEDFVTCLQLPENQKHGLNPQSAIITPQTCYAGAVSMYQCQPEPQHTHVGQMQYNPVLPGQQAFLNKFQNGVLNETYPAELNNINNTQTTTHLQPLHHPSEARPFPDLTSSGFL

[2] = target: Cytochrome P450 3A4 (Homo sapiens, UniProt P08684); conditions: Potency;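 also: confirmatory qHTS run detecting inhibitors and substrates of CYP3A4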
Cytochrome P450 3A4, sequence (P08684 whole entry): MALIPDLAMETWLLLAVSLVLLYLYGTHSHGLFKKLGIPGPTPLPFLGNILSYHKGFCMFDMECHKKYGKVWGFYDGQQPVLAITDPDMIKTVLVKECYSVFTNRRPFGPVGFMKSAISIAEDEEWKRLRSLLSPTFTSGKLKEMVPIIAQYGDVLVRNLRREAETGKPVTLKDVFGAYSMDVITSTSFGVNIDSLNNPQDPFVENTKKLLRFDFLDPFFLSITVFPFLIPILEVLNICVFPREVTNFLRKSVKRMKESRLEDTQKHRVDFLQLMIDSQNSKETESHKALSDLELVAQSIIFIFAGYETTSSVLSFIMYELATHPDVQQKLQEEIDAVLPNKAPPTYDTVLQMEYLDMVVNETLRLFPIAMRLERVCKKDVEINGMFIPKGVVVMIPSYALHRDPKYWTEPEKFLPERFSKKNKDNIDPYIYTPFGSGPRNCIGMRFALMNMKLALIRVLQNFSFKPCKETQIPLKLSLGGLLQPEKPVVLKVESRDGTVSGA

[3] = test system: BJ; assay: cytotoxicity toward BJ-TERT fibroblasts, dose response, cell-based, RAS-independent, luminescence (AID 1933); type: functional; conditions: Homo sapiens
[4] = test system: BJ; assay: cytotoxicity toward BJ-TERT-LT-ST fibroblasts, dose response, cell-based, RAS-independent, luminescence (AID 1935); type: functional; conditions: Homo sapiens;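 also: BJ fibroblasts immortalized with TERT plus LT and ST oncogenes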
[5] = target: Adenosylmethionine-8-amino-7-oxononanoate aminotransferase (Mycobacterium tuberculosis, UniProt P9WQ81); assay: Mycobacterium tuberculosis BioA enzyme inhibitor Measured in Biochemical System Using Plate Reader - 2163-02_Inhibitor_Dose_CherryPick_Activity.; type: functional, Mycobacterium tuberculosis UT205
Adenosylmethionine-8-amino-7-oxononanoate aminotransferase, sequence (P9WQ81 whole entry): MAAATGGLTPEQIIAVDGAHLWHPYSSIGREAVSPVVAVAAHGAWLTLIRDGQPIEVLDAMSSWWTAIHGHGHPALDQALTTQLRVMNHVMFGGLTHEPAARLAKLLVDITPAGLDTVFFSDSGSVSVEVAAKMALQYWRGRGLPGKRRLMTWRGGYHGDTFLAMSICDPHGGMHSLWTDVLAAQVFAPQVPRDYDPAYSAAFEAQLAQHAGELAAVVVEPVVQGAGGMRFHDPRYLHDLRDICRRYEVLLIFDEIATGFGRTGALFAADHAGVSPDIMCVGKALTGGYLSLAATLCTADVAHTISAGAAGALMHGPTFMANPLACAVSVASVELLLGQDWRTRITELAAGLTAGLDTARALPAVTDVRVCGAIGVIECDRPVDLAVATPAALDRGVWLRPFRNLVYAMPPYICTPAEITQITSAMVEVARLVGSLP

[6] = test system: BJ; assay: cells; type: functional, cell-based; conditions: Homo sapiens
[7] = cytotoxicity toward DRD oncogenic fibroblasts, dose response, cell-based, non-viral oncogenic, luminescence (AID 1934); type: functional; conditions: Homo sapiens
[8] = target: T2, Mitochondrial peptide methionine sulfoxide reductase (Bos taurus, UniProt P54149); type: functional;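 also: absorbance read-out, biochemical high-throughput dose-response screen for MsrA inhibitors, confirmatory; recombinant bovine MsrA coupled to E. coli TrxB with NADPH and selenocystamine; potency is for inhibitors of MsrA activity on DMSO substrate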
T2 sequence (P54149 whole entry): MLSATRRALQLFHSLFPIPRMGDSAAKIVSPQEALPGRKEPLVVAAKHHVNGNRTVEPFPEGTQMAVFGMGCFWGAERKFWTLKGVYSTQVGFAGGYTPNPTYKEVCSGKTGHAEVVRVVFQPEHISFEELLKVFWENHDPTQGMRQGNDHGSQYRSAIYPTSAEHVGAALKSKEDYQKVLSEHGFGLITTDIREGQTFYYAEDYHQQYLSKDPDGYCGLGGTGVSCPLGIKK

[9] = target: T3, Sentrin-specific protease 1 (Homo sapiens, UniProt Q9P0U3); assay: potency of human SENP1 inhibitors, dose response, biochemical, kinetic FRET (AID 651697); type: functional; conditions: read-out: IC50_Mean
T3 sequence (Q9P0U3 whole entry): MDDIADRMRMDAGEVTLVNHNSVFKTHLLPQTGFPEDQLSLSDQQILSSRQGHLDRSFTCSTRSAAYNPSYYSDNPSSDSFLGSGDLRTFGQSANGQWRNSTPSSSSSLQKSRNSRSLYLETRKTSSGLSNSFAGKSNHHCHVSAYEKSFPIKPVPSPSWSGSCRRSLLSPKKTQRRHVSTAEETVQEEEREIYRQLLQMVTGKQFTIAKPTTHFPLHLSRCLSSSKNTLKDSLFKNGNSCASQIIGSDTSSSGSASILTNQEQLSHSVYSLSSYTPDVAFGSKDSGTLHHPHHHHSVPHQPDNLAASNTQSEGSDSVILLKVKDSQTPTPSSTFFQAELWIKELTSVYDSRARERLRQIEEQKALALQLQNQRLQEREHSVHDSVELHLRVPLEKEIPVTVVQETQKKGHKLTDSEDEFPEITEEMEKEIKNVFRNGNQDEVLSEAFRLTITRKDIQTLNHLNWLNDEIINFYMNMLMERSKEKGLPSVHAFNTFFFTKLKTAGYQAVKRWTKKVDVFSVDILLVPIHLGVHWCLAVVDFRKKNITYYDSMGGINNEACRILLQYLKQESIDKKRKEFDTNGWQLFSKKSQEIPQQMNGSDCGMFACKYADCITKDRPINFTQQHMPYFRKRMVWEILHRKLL

[10] = target: T3, Sentrin-specific protease 1; assay: Dose response confirmation of small molecule inhibitors of the catalytic domain of the SUMO protease, SENP1 in a FRET assay.; type: functional; conditions: read-out: IC50_Mean
[11] = test system: Vero; assay: cells; type: functional; conditions: Chlorocebus sabaeus
[12] = miR-122 activators in hepatoma reporter cells, dose response, cell-based, Huh7 psiCHECK-miR122, Renilla luciferase, cherry-picked (AID 651956); type: functional;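 also: huh7 hepatoma cells stably carrying a psiCHECK-2 miR-122 sensor plasmid; renilla luciferase signal reporting endogenous miR-122 activity after 48 h compound exposure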
[13] = target: T4, Protein kinase C zeta type (Homo sapiens, UniProt Q05513); type: functional;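 also: measured as one member of a broad kinase profiling panel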
T4 sequence (Q05513 whole entry): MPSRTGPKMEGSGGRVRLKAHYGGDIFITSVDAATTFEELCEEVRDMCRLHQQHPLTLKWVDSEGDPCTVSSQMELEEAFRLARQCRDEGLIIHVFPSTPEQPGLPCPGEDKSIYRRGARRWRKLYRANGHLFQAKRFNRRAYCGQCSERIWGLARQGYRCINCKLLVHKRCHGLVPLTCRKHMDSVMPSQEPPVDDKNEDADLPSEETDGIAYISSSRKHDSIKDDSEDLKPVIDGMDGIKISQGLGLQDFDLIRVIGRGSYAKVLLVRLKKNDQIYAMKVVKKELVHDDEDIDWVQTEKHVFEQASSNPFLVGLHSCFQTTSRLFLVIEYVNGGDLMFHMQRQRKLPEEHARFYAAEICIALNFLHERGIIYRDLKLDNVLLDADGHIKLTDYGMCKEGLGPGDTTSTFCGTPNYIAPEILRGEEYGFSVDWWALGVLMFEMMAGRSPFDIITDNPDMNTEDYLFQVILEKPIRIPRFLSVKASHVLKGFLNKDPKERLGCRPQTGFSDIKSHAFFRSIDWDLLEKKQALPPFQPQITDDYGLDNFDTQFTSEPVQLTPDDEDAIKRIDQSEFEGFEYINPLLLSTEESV

[14] = target: T5, Dual specificity tyrosine-phosphorylation-regulated kinase 3 (Homo sapiens, UniProt O43781); type: functional;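 also: measured as one member of a broad kinase panel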
T5 sequence (O43781 whole entry): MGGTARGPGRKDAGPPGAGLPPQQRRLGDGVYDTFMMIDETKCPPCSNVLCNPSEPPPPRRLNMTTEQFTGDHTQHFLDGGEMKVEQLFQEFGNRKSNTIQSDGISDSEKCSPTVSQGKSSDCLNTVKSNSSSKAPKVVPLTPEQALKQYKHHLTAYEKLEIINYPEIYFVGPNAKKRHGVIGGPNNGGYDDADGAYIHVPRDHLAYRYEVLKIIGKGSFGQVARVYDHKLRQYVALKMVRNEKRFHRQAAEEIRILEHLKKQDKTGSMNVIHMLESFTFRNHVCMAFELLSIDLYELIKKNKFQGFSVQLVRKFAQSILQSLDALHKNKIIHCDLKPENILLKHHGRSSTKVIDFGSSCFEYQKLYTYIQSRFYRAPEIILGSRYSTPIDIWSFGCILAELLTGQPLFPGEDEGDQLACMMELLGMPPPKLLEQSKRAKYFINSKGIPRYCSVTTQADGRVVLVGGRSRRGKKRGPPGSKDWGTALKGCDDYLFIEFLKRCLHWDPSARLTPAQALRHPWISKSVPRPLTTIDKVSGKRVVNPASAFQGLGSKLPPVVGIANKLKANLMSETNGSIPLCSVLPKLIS

[15] = target: Protein kinase C gamma type (Homo sapiens, UniProt P05129); type: functional
[16] = target: T6, Testis-specific serine/threonine-protein kinase 2 (Homo sapiens, UniProt Q96PF2); type: functional;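 also: part of the Navigating the Kinome panel, target entry STK22B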
T6 sequence (Q96PF2 whole entry): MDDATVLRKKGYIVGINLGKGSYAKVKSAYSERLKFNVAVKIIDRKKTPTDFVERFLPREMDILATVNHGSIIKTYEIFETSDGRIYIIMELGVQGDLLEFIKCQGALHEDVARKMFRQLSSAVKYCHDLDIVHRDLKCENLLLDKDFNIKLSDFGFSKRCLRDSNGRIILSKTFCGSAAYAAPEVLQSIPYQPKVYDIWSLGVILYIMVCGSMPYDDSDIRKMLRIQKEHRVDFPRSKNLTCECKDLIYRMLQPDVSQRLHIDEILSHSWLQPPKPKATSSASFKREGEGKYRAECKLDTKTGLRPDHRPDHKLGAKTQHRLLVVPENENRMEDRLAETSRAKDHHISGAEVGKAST

[17] = target: T7, Lymphokine-activated killer T-cell-originated protein kinase (Homo sapiens, UniProt Q96KB5); type: functional;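 also: value comes from a kinase panel screen in which TOPK was one of the panel members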
T7 sequence (Q96KB5 whole entry): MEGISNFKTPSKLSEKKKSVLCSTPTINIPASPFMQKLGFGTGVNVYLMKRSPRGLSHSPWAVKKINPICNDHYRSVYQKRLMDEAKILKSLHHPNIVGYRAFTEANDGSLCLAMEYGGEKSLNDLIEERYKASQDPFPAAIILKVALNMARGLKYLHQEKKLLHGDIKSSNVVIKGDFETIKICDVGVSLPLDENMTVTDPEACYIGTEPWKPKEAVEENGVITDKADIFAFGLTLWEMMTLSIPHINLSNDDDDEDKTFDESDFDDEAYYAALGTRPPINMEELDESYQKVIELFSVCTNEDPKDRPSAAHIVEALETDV

[18] = target: Cyclin-dependent kinase 1 (Homo sapiens, UniProt P06493); type: functional;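 also: Kinome-wide panel profiling, with the target listed as panel member CDC2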
Cyclin-dependent kinase 1, sequence (P06493 whole entry, the tested form may be a part): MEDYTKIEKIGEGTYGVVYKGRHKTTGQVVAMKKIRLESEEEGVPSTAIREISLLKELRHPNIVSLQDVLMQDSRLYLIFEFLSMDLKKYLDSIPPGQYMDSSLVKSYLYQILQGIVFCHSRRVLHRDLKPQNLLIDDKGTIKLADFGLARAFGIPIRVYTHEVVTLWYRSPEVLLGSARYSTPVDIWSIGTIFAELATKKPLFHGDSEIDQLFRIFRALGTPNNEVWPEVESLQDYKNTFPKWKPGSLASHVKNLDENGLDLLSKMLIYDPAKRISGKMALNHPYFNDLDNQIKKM

[19] = target: PAS domain-containing serine/threonine-protein kinase (Homo sapiens, UniProt Q96RG2); type: functional
PAS domain-containing serine/threonine-protein kinase, sequence (Q96RG2 whole entry, the tested form may be a part): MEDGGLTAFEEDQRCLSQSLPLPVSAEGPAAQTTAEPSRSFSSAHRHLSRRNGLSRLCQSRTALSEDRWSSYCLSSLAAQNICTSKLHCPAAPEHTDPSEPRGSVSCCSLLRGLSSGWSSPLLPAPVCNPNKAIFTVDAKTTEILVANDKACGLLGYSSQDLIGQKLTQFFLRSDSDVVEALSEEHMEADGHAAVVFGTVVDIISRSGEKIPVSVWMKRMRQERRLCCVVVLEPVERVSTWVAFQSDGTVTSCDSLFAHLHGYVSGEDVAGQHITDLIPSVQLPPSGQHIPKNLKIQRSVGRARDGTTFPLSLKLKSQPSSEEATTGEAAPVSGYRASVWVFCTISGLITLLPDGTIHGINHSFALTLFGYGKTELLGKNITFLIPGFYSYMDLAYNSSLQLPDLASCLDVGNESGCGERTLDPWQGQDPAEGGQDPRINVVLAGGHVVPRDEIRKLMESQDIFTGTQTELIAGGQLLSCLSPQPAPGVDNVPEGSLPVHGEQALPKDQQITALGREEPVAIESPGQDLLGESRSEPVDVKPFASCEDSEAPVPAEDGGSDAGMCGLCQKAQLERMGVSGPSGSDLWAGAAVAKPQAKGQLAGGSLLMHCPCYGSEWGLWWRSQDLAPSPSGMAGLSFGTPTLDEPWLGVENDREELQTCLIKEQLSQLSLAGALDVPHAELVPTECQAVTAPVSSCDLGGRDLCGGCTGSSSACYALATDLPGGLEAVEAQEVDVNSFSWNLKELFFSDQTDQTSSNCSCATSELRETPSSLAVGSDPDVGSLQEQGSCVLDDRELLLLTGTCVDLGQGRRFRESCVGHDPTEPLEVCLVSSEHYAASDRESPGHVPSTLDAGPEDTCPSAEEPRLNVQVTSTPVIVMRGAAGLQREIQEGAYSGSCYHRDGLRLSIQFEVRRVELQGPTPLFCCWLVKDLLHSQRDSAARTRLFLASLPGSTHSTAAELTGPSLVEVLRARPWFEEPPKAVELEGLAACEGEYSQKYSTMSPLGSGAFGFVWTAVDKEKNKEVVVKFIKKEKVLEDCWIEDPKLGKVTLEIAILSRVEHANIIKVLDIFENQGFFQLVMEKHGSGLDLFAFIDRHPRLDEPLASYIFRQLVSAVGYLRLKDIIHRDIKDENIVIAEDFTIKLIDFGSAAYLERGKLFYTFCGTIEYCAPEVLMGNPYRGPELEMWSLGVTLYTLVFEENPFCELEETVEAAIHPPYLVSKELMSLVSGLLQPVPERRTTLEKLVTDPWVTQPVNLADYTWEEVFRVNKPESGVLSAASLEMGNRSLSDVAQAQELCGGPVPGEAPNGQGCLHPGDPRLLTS

[20] = target: MAP kinase-activated protein kinase 3 (Homo sapiens, UniProt Q16644); type: functional;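 also: value comes from a kinome-wide profiling panel in which MAPKAPK3 is one of the panel members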
MAP kinase-activated protein kinase 3, sequence (Q16644 whole entry): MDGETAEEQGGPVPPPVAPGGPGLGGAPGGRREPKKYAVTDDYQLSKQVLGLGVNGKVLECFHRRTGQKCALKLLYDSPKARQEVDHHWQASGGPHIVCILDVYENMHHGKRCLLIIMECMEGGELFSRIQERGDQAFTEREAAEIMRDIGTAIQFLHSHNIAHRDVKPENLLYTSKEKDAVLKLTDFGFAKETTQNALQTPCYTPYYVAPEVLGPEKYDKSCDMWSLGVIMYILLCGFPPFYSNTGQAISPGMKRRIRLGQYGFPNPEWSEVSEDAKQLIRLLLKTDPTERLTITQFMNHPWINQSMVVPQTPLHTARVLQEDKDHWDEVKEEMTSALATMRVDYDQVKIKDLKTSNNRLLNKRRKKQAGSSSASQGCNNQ

In the case of `COc1ccc(C(=O)Nc2ccccc2)cc1[N+](=O)[O-]`, the AC50 [1] is reported as 44.7 µM (inconclusive) and the AC50 [2] is reported as 15.8 µM (inconclusive).
With `CC(=O)c1ccc(N2CCN(c3ncccn3)CC2)c([N+](=O)[O-])c1` the EC50 [3] was > 150 µM (not active), the EC50 [4] was > 150 µM (inconclusive) and the AC50 [5] was 1.02 µM (active). For the same molecule, the EC50 [6] was > 150 µM (not active) and the EC50 [7] was > 150 µM (not active).
In the case of `CSc1nc2[nH]c3c(c2c2nnnn12)CCCC3`, the IC50 [8] is reported as 155 µM (inactive).
In the case of `COc1cc2cnc(-c3cccnc3)cc2cc1OC`, the AC50 [5] is reported as 11.2 µM (active).
With `O=c1c2ccccc2nc(/C=C/c2cc(Br)ccc2O)n1CCO` the IC50 [9] was 8.91 µM (active), the IC50 [10] was 6.14 µM (active) and the CC50 [11] was 15.2 µM (active).
With `CC(C)(C)[C@@H](O)/C(=C\c1ccc(Cl)cc1Cl)n1cncn1` the AC50 [1] was 70.8 µM (inconclusive).
With `CNC(=O)C[C@@H]1CC[C@H]2[C@@H](COc3ccc(NC(=O)c4cccc(OC)c4)cc3C(=O)N2C)O1` the AC50 [12] was 54.9 µM (active).
In the case of `CN1CCN(c2ccc3nc(-c4c(N)c5c(F)cccc5[nH]c4=O)[nH]c3c2)CC1` [DOVITINIB], the Ki [13] is reported as > 7.94 µM (inactive), the Ki [14] is reported as > 6.31 µM (inactive) and the Ki [15] is reported as > 7.94 µM (inactive). The Ki [16] was > 1.58 µM (inactive), the Ki [17] was > 10 µM (inactive) and the Ki [18] was > 7.94 µM (inactive). For the same molecule, the Ki [19] was > 1.58 µM (inactive) and the Ki [20] was > 10 µM (inactive).
